Consider six compounds from patent US12514843B2, “Biofilm disruption” (QBIOTICS PTY LTD, priority 2019, dated 2026).

Converted amounts (≈) assume the structure as drawn.

The subject of assay [1] is Acinetobacter baumannii 7789 (V19). Description: Minimum inhibitory concentration (MIC) assay, planktonic culture, broth dilution. The class given is cell-based. Further details: key: C = confluent growth, i.e. no MIC could be determined at any concentration tested. As to conditions: A. baumannii, planktonic culture in Mueller-Hinton broth; mean of three replicate tests. The method, then: (§1) The effects of five epoxytiglienones (Compounds 1, 2, 3, 4 and 6) and two comparator comparator compounds (epoxytiglienones having longer carbon chains at the C12 position) on six human pathogenic bacteria (two Gram-positive and four Gram-negative species) were measured in conventional planktonic culture systems. A minimum inhibitory concentrations (MIC) assay (the standard assay employed to define and quantify antibiotic activity) was performed to determine antibacterial activity for each epoxytiglienone against each bacterial strain.
(§2) The Gram-positive bacteria used in this study were methicillin resistant Staphylococcus aureus (MRSA) 1004A and Streptococcus pyogenes. The Gram-negative bacteria used in this study were Pseudomonas aeruginosa PAO1, Escherichia coli IR57 (V7), Klebsiella pneumoniae, and Acinetobacter baumannii 7789 (V19). MIC assays were performed on planktonic cultures of each bacteria grown in Mueller-Hinton broth using the standard broth dilution method described by Jorgensen et al. (1999) using epoxytiglienones dissolved in ethanol.

In assay [2] the test system is Escherichia coli IR57 (V7). The assay is described as above. The class given is cell-based. More on the design: key: C = confluent growth, i.e. no MIC could be determined at any concentration tested. Conditions: E. coli, planktonic culture in Mueller-Hinton broth; mean of three replicate tests. The method, then: as §1, §2
Assay [3] deals with Klebsiella pneumoniae. The assay is described as above. The assay is classed as cell-based. More on the design: key: C = confluent growth, i.e. no MIC could be determined at any concentration tested. Conditions: K. pneumoniae, planktonic culture in Mueller-Hinton broth; mean of three replicate tests. On the procedure: as §1, §2
For assay [4], the system named is Pseudomonas aeruginosa PAO1. Described as above. The class given is cell-based. As to conditions: P. aeruginosa, planktonic culture in Mueller-Hinton broth; mean of three replicate tests. Further details: key: C = confluent growth, i.e. no MIC could be determined at any concentration tested. The method, then: as §1, §2
The test system of assay [5] is Streptococcus pyogenes. The description is as above. The class given is cell-based. More on the design: key: C = confluent growth, i.e. no MIC could be determined at any concentration tested. As to conditions: S. pyogenes, planktonic culture in Mueller-Hinton broth; mean of three replicate tests. On the procedure:
as §1, §2

For assay [6], the system named is methicillin resistant Staphylococcus aureus (MRSA) 1004A. The assay is described as above. The class given is cell-based. More on the design: key: C = confluent growth, i.e. no MIC could be determined at any concentration tested. Conditions: S. aureus, planktonic culture in Mueller-Hinton broth; mean of three replicate tests. The method, then: as §1, §2
Assay [7] deals with E. coli IR57 biofilm. Description: Disruption of established in vitro biofilm, CLSM with COMSTAT image analysis. The assay is classed as cell-based, Escherichia coli. Conditions: E. coli IR57 24 h biofilm, 256 μg/mL, further 24 h; vs untreated and ethanol blank controls. The method, then: The effects of administration of Compounds 1, 4 and 6 and comparator compound CC-1 on disruption of established in vitro biofilms of Escherichia coli (E. coli) was investigated using methods described in Powell et al. (2018).
(§3) Biofilms of E. coli IR57 were grown on 96-well glass-bottomed plates in Mueller-Hinton (MH) broth for 24 h, before 50% of the supernatant was replaced with fresh MH broth with or without the epoxytiglienone compound added to a final concentration of 256 μg/mL (vehicle is ethanol). An ethanol equivalent blank was used as a further control treatment. The plates were then incubated for a further 24 h at 37° C.
(§4) Confocal laser scanning microscopy (CLSM) was then used to image the biofilms, following staining with Live/Dead® Baclight stain with phosphate buffered saline (PBS) added to each well before imaging with z-stack CLSM. The resultant images were analysed by COMSTAT software to produce measurements of (i) biofilm biomass volume or bio-volume (μm^3/μm^2) and (ii) DEAD/LIVE bacterial ratio.

For assay [8], the system named is A. baumannii 7789 biofilm. The description is as above. The assay is classed as cell-based, Acinetobacter baumannii. As to conditions: 256 μg/mL; for DEAD/LIVE bacterial ratio: vs untreated and ethanol blank controls; for biofilm bio-volume (COMSTAT): vs untreated and ethanol blank controls (p<0.05). On the procedure: as §3, §4
(§5) The effects of the epoxytiglienones (Compounds 1, 4, 6 and the comparator compound CC-1) on disruption of established in vitro biofilms were further investigated with two other species of Gram-negative bacteria (Pseudomonas aeruginosa PA01 and Acinetobacter baumannii 7789) using methods described in Example 2 above. Cell permeabilisation following Compound 1, 4 and 6 treatment was also determined using SYTOX™ Green Nucleic Acid Stain with untreated control and positive control of 70% isopropanol.

Assay [9] deals with P. aeruginosa PAO1 biofilm. The description is as above. The class given is cell-based, Pseudomonas aeruginosa. As to conditions: 256 μg/mL, vs untreated and ethanol blank controls. The method, then:
as §3, §4, §5

For assay [10], the system named is E. coli IR57 biofilm. Description: Multiple particle tracking (MPT) of 200 nm FluoSpheres in established biofilm. The assay is classed as cell-based, Escherichia coli. As to conditions: for Diffusion coefficient (Deff) ± standard deviation: 200 nm negatively-charged carboxylate-modified FluoSpheres in E. coli IR57 biofilms, 256 μg/mL, 24 h treatment; for mean squared displacement (MSD) of FluoSphere particles / biofilm creep compliance: E. coli IR57 biofilm, vs untreated and ethanol blank controls; for mean squared displacement (MSD) of FluoSphere particles: 200 nm FluoSpheres; for biofilm creep compliance: derived from MSD vs lag time. On the procedure:
The effect of three epoxytiglienones (Compounds 1, 4 and 6) on the assembly and permeability of established biofilms of E. coli was assessed using multiple particle tracking (MPT). MPT is a recently described technique, allowing simultaneous tracking of micron-size particles through biofilms using microscopy, from which the diffusion-based parameters of embedded particles within the extracellular polymeric matrix (EPS) of the biofilm can be determined (Cao et al. 2016). MPT measurements also allows for calculation of micro-rheological properties of the biofilm structure following treatment with test compounds.
E. coli biofilms were established and epoxytiglienone and control treatments applied as described in Example 2 above. Twenty-four hours after application of the treatments, the biofilms were stained with SYTO9® and 0.0025% of negatively-charged, carboxylate-modified FluoSpheres® (200 nm) added onto the biofilms and incubated for a further 2 hours. FluoSphere® particle movements within the biofilms were then captured on video using epifluorescence microscopy with a high frame-rate camera (33 ms). Particle trajectories were tracked using ImageJ softwaren (Mosaic) before calculation of three parameters of the 200 nm FluoSphere® particles: (i) ensemble diffusion coefficient (Deff), (ii) ensemble mean squared displacement (MSD) and (iii) creep compliance (a measure of resistance to mechanical deformation derived from the MSD vs lag time). Each treatment was replicated three times.

`CCCCCC=CC=CC(=O)OC1C(C)C2(O)C(C3OC3(CO)C(O)C3(O)C(=O)C(C)=CC32)C2C(C)(C)C12OC(=O)C(C)CC` (centres unmarked) [CC-1, 12-(2,4-decadienoyl)-13-(2-methylbutanoyl)-6,7-epoxy-4,5,9,12,13,20-hexahydroxy-1-tiglien-3-one, reference compound]: the Minimum inhibitory concentrations result was “C” in assay [1]; “C” in [2]; “C” in assay [3]; “C” in [4]; 8 µg/mL (≈ 12.7 µM) in assay [5]; 8 µg/mL (≈ 12.7 µM) in [6]. Further, the “biofilm bio-volume (COMSTAT)” value in [7] is reported as “no apparent effect”; in assay [8], “significant reductions”. Moreover, the “distribution and density of bacteria in the biofilm (CLSM)” value (“distribution and density of bacteria” below) in [7] is “no apparent effect”. Moreover, the DEAD/LIVE bacterial ratio entry in assay [8] and in assay [9] was “no significant differences” throughout.

Turning to `CCCCCC(=O)OC1C(C)C2(O)C(C3OC3(CO)C(O)C3(O)C(=O)C(C)=CC32)C2C(C)(C)C12OC(=O)C(C)CC` (centres unmarked) [Compound 3, 12-hexanoyl-13-(2-methylbutanoyl)-6,7-epoxy-4,5,9,12,13,20-hexahydroxy-1-tiglien-3-one], the Minimum inhibitory concentrations result in assay [1] was “C”; in assay [2], “C”; in [3], “C”; in assay [4] it was “C”; in assay [5] it was 128 µg/mL (≈ 221 µM); in [6], 256 µg/mL (≈ 442 µM).

In the case of `CCC(C)C(=O)OC1C(C)C2(O)C(C3OC3(CO)C(O)C3(O)C(=O)C(C)=CC32)C2C(C)(C)C12OC(=O)C(C)CC` (centres unmarked) [Compound 2, 12,13-di-(2-methylbutanoyl)-6,7-epoxy-4,5,9,12,13,20-hexahydroxy-1-tiglien-3-one], the Minimum inhibitory concentrations entry was “C” in assay [1]; “C” in assay [2]; “C” in assay [3]; “C” in assay [4]; 128 µg/mL (≈ 227 µM) in assay [5]; 256 µg/mL (≈ 453 µM) in [6].

For `CCCCCC=CC=CC(=O)O[C@@H]1C(C)[C@]2(O)C(C3OC3(CO)[C@H](O)[C@@]3(O)C(=O)C(C)=CC23)C2C(C)(C)[C@]21OC(=O)C(C)CC` (stereo partly drawn) [CC-2, 12R-(2,4-decadienoyl)-13R-(2-methylbutanoyl)-6,7-epoxy-4R,5R,9S,12R,13R,20-hexahydroxy-1-tiglien-3-one, reference compound], the Minimum inhibitory concentrations entry in [1] is “C”; in assay [2] it was “C”; in assay [3], “C”; in assay [4] it was “C”; in [5] it was 8 µg/mL (≈ 12.7 µM); in assay [6] it was 16 µg/mL (≈ 25.4 µM).

With `C/C=C(\C)C(=O)O[C@@H]1[C@@H](C)[C@@]2(O)[C@H]([C@@H]3C(C)(C)[C@]13OC(=O)[C@@H](C)CC)[C@@H]1O[C@]1(CO)[C@@H](O)[C@]1(O)C(=O)C(C)=C[C@H]12` [Compound 1, 12-tigloyl-13-(2-methylbutanoyl)-6,7-epoxy-4,5,9,12,13,20-hexahydroxy-1-tiglien-3-one], the Minimum inhibitory concentrations result in assay [1] was “C”; in assay [2] it was “C”; in assay [3] it was “C”; in assay [4], “C”; in [5], 128 µg/mL (≈ 227 µM); in assay [6], 256 µg/mL (≈ 455 µM). Further, the “biofilm bio-volume (COMSTAT)” value in assay [7] is reported as “Significant decreases”; in assay [8], “significant reductions”. Further, in assay [7], the “distribution and density of bacteria” value is listed as “significant changes”. Moreover, the “Diffusion coefficient (Deff) ± standard deviation” value in [10] was found to be 0.6018 ± 0.0901 cm^2 · s^−1 × 10^−9. Further, the “mean squared displacement (MSD) of FluoSphere particles” value in assay [10] was “substantially higher”. In assay [10], the biofilm creep compliance entry was “increased”. For the same compound, the DEAD/LIVE bacterial ratio entry in assay [8] and in assay [9] was “no significant differences” each time.

For the compound `CCC(=O)OC1C(C)C2(O)C(C3OC3(CO)C(O)C3(O)C(=O)C(C)=CC32)C2C(C)(C)C12OC(=O)C(C)CC` (centres unmarked) [Compound 6, 12-propanoyl-13-(2-methylbutanoyl)-6,7-epoxy-4,5,9,12,13,20-hexahydroxy-1-tiglien-3-one], the Minimum inhibitory concentrations entry in assay [1], in assay [2], in [3], in [4], in assay [5] and in [6] was “C” throughout. In assay [7], the “biofilm bio-volume (COMSTAT)” value is “Decreases in bio-volume were evident”. In addition, the “distribution and density of bacteria” value in assay [7] is “significant changes”. Moreover, the “Diffusion coefficient (Deff) ± standard deviation” value in assay [10] is 0.1607 ± 0.0104 cm^2 · s^−1 × 10^−9. The “mean squared displacement (MSD) of FluoSphere particles” value in [10] is listed as “substantially higher”. In assay [10], the biofilm creep compliance result is on record as “increased”. The DEAD/LIVE bacterial ratio entry in assay [8] and in [9] was “no significant differences” throughout.
